Source: PubChem BioAssay (NCI)
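Briefly, cells in 96-well plates were exposed to five compound concentrations for 48 h, and endpoints were estimated by linear interpolation. TGI: concentration producing complete growth inhibition.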

What was measured:
Test in all cases: inhibition of tumour cell growth, NCI panel, 48 h
DLD-1 colon = tested on: DLD-1 colon
HOP-92 NSCLC = tested on: HOP-92 NSCLC
SN12C renal = tested on: SN12C renal
786-0 renal = tested on: 786-0 renal
HCT-116 colon = tested on: HCT-116 colon
UACC-257 melanoma = tested on: UACC-257 melanoma
LOX IMVI melanoma = tested on: LOX IMVI melanoma
NCI-H226 lung = tested on: NCI-H226 lung
RPMI-8226 leukemia = tested on: RPMI-8226 leukemia
HOP-18 NSCLC = tested on: HOP-18 NSCLC
KM20L2 colon = tested on: KM20L2 colon
SF-295 CNS = tested on: SF-295 CNS
OVCAR-3 ovarian = tested on: OVCAR-3 ovarian
HOP-62 NSCLC = tested on: HOP-62 NSCLC
SF-268 CNS = tested on: SF-268 CNS
SNB-75 CNS = tested on: SNB-75 CNS
NCI-H23 lung = tested on: NCI-H23 lung
HT29 colon = tested on: HT29 colon
ACHN renal = tested on: ACHN renal
MOLT-4 leukemia = tested on: MOLT-4 leukemia
RXF 393 renal = tested on: RXF 393 renal
OVCAR-4 ovarian = tested on: OVCAR-4 ovarian
COLO 205 colon = tested on: COLO 205 colon
MALME-3M melanoma = tested on: MALME-3M melanoma
HCC-2998 colon = tested on: HCC-2998 colon
SK-MEL-28 melanoma = tested on: SK-MEL-28 melanoma
SK-MEL-2 melanoma = tested on: SK-MEL-2 melanoma
HCT-15 colon = tested on: HCT-15 colon
K-562 leukemia = tested on: K-562 leukemia
IGROV1 ovarian = tested on: IGROV1 ovarian
NCI-H460 lung = tested on: NCI-H460 lung
CCRF-CEM leukemia = tested on: CCRF-CEM leukemia
U251 CNS = tested on: U251 CNS
CAKI-1 renal = tested on: CAKI-1 renal
EKVX NSCLC = tested on: EKVX NSCLC
UACC-62 melanoma = tested on: UACC-62 melanoma
NCI-H522 lung = tested on: NCI-H522 lung
OVCAR-8 ovarian = tested on: OVCAR-8 ovarian
OVCAR-5 ovarian = tested on: OVCAR-5 ovarian
SNB-19 CNS = tested on: SNB-19 CNS
A549 NSCLC = tested on: A549 NSCLC
A498 renal = tested on: A498 renal
SK-OV-3 ovarian = tested on: SK-OV-3 ovarian
UO-31 renal = tested on: UO-31 renal
SW-620 colon = tested on: SW-620 colon
KM12 colon = tested on: KM12 colon
RXF-631 renal = tested on: RXF-631 renal
XF 498 CNS = tested on: XF 498 CNS
M14 melanoma = tested on: M14 melanoma
TK-10 renal = tested on: TK-10 renal
SF-539 CNS = tested on: SF-539 CNS
DMS 114 small cell lung = tested on: DMS 114 small cell lung
SK-MEL-5 melanoma = tested on: SK-MEL-5 melanoma
DMS 273 small cell lung = tested on: DMS 273 small cell lung
M19-MEL melanoma = tested on: M19-MEL melanoma
LXFL 529 NSCLC = tested on: LXFL 529 NSCLC
HL-60(TB) leukemia = tested on: HL-60(TB) leukemia

## Cc1c(Cl)ccc2c1NC(=O)C2(O)CC(=O)c1ccc2ccccc2c1 (stereo not given)
DLD-1 colon
  TGI: > 100 µM
HOP-92 NSCLC
  TGI: > 100 µM
SN12C renal
  TGI: > 100 µM
786-0 renal
  TGI: > 100 µM
HCT-116 colon
  TGI: > 100 µM
UACC-257 melanoma
  TGI: > 100 µM
LOX IMVI melanoma
  TGI: > 100 µM
NCI-H226 lung
  TGI: > 100 µM
RPMI-8226 leukemia
  TGI: 46.7 µM
HOP-18 NSCLC
  TGI: > 100 µM
KM20L2 colon
  TGI: > 100 µM
SF-295 CNS
  TGI: > 100 µM
OVCAR-3 ovarian
  TGI: > 100 µM
HOP-62 NSCLC
  TGI: > 100 µM
SF-268 CNS
  TGI: > 100 µM
SNB-75 CNS
  TGI: 54.2 µM
NCI-H23 lung
  TGI: > 100 µM
HT29 colon
  TGI: > 100 µM
ACHN renal
  TGI: > 100 µM
MOLT-4 leukemia
  TGI: 89.5 µM
RXF 393 renal
  TGI: 88.9 µM
OVCAR-4 ovarian
  TGI: > 100 µM
COLO 205 colon
  TGI: > 100 µM
MALME-3M melanoma
  TGI: > 100 µM
HCC-2998 colon
  TGI: > 100 µM
SK-MEL-28 melanoma
  TGI: > 100 µM
SK-MEL-2 melanoma
  TGI: > 100 µM
HCT-15 colon
  TGI: > 100 µM
K-562 leukemia
  TGI: > 100 µM
IGROV1 ovarian
  TGI: > 100 µM
NCI-H460 lung
  TGI: > 100 µM
CCRF-CEM leukemia
  TGI: > 100 µM
U251 CNS
  TGI: > 100 µM
CAKI-1 renal
  TGI: > 100 µM
EKVX NSCLC
  TGI: > 100 µM
UACC-62 melanoma
  TGI: > 100 µM
NCI-H522 lung
  TGI: 61.7 µM
OVCAR-8 ovarian
  TGI: > 100 µM
OVCAR-5 ovarian
  TGI: > 100 µM
SNB-19 CNS
  TGI: > 100 µM
A549 NSCLC
  TGI: > 100 µM
A498 renal
  TGI: > 100 µM
SK-OV-3 ovarian
  TGI: > 100 µM
UO-31 renal
  TGI: > 100 µM
SW-620 colon
  TGI: > 100 µM
KM12 colon
  TGI: > 100 µM
RXF-631 renal
  TGI: > 100 µM
XF 498 CNS
  TGI: > 100 µM
M14 melanoma
  TGI: > 100 µM
TK-10 renal
  TGI: > 100 µM
SF-539 CNS
  TGI: > 100 µM
DMS 114 small cell lung
  TGI: 58.4 µM

## CN(CC(=O)O)S(=O)(=O)c1ccc(F)cc1
DLD-1 colon
  TGI: > 100 µM
HOP-92 NSCLC
  TGI: > 100 µM
SN12C renal
  TGI: > 100 µM
786-0 renal
  TGI: > 100 µM
UACC-257 melanoma
  TGI: > 100 µM
LOX IMVI melanoma
  TGI: > 100 µM
RPMI-8226 leukemia
  TGI: > 100 µM
HOP-18 NSCLC
  TGI: > 100 µM
KM20L2 colon
  TGI: > 100 µM
SF-295 CNS
  TGI: > 100 µM
OVCAR-3 ovarian
  TGI: > 100 µM
SF-268 CNS
  TGI: > 100 µM
SNB-75 CNS
  TGI: > 100 µM
NCI-H23 lung
  TGI: > 100 µM
HT29 colon
  TGI: > 100 µM
ACHN renal
  TGI: > 100 µM
SK-MEL-5 melanoma
  TGI: > 100 µM
MOLT-4 leukemia
  TGI: > 100 µM
RXF 393 renal
  TGI: > 100 µM
OVCAR-4 ovarian
  TGI: > 100 µM
COLO 205 colon
  TGI: > 100 µM
MALME-3M melanoma
  TGI: > 100 µM
HCC-2998 colon
  TGI: > 100 µM
SK-MEL-28 melanoma
  TGI: > 100 µM
SK-MEL-2 melanoma
  TGI: > 100 µM
HCT-15 colon
  TGI: > 100 µM
K-562 leukemia
  TGI: > 100 µM
IGROV1 ovarian
  TGI: > 100 µM
NCI-H460 lung
  TGI: > 100 µM
DMS 273 small cell lung
  TGI: > 100 µM
CCRF-CEM leukemia
  TGI: > 100 µM
U251 CNS
  TGI: > 100 µM
CAKI-1 renal
  TGI: > 100 µM
EKVX NSCLC
  TGI: > 100 µM
UACC-62 melanoma
  TGI: > 100 µM
NCI-H522 lung
  TGI: > 100 µM
M19-MEL melanoma
  TGI: > 100 µM
LXFL 529 NSCLC
  TGI: > 100 µM
OVCAR-8 ovarian
  TGI: > 100 µM
OVCAR-5 ovarian
  TGI: > 100 µM
SNB-19 CNS
  TGI: > 100 µM
A549 NSCLC
  TGI: > 100 µM
A498 renal
  TGI: > 100 µM
SK-OV-3 ovarian
  TGI: > 100 µM
UO-31 renal
  TGI: > 100 µM
SW-620 colon
  TGI: > 100 µM
KM12 colon
  TGI: > 100 µM
RXF-631 renal
  TGI: > 100 µM
XF 498 CNS
  TGI: > 100 µM
M14 melanoma
  TGI: > 100 µM
TK-10 renal
  TGI: > 100 µM
HL-60(TB) leukemia
  TGI: > 100 µM
SF-539 CNS
  TGI: > 100 µM
